For series [1], the target named is T1, Human sputum neutrophil elastase (Homo sapiens, UniProt P08246).
T1 construct: purchased Elastin Products Co; host or cells: human sputum (natural source)
T1 sequence (P08246 30-247 limits assumed): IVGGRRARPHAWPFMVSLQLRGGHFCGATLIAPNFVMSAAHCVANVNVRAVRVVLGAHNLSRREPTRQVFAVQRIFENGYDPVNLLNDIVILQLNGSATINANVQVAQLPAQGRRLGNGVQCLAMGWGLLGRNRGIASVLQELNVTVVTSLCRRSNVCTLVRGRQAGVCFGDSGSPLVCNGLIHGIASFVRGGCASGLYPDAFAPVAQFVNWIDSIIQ
Briefly: Inhibitor IC50 against human neutrophil elastase (fluorogenic MeOSuc-AAPV-AMC substrate). The class given is biochemical. Particulars: 20 min preincubation, read-out: HNE IC50. The procedure, abridged: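 Enzyme from human sputum in 200 mM Tris pH 7.4 with 1 mg/ml BSA; MeOSuc-AAPV-AMC at 1×10^−4 M final. Reaction ran 20 min at room temperature, then quenched with 3% (v/v) acetic acid. IC50 from Hill fit of fluorescence versus inhibitor concentration.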

For series [2], the system named is LPS-induced increase of lung permeability (Evan's blue dye leakage). Briefly: Acute lung injury model (lung permeability assay). Type of series: in vivo. The conditions noted are these: male Wistar rats, intratracheal LPS, intravenous infusion 10 mg/kg/hr over 6 hours, Evan's blue dye content of lung. The procedure:
Acute Lung Injury Model (Lung Permeability Assay)
Adult male Wistar rats (200-250 g) were anesthetized with an intraperitoneal of pentobarbital (30 mg/kg). Under the anesthesia, lipopolysaccharide (LPS) ([…]) or physiological saline (100 μL/animal) was intratracheally injected. Increase of lung permeability after LPS instillation was measured by Evan's blue dye (EBD) leakage from blood. EBD (40 mg/5 mL/kg) was administered via tail vein 5 hours after the LPS challenge. At 6 hours, animals were exsanguinated by cardiac puncture under deep anesthesia and the pulmonary vessels were perfused with 20 mL saline to ensure the removal of EBD from the vascular spaces. Lungs were removed and EBD was extracted in 6 mL formamide at 65° C. overnight. EBD content was determined by measuring absorbance at 620 nm using a spectrophotometer. The test compound was dissolved in saline with a small amount of 1 N HCl and continuously infused intravenously at a rate of 10 mg/kg/hr over 6 hours starting just after LPS challenge.

Where “and” joins values, the source holds several entries; their conditions need not be identical. Identical values can stand only once. Counter-ions that a name gives are not always drawn.

Results on six molecules are retold here after patent US7879846B2, “Serine hydrolase inhibitors” (Kyorin Pharmaceutical Co.., Ltd., priority 2006, dated 2011).

`CCc1cc(OC)cc2nc(-c3cccnc3N3CC[C@H](N(C)C)C3)oc(=O)c12` [Compound 132, 2-[2-((S)-3-Dimethylamino-pyrrolidin-1-yl)-pyridin-3-yl]-5-ethyl-7-methoxy-4H-benz[d][1,3]oxazin-4-one]: in series [1], the IC50 was less than 15 nM. Besides, the “% Inhibition in the ALI model” value in series [2] was “C (C>30)”.

The molecule `CCc1cc(OC)cc2nc(-c3cccnc3N3CC[C@H](N(C)C)C3)oc(=O)c12` (as salt: methanesulfonate) (hydrate or solvate) [Compound 132, 2-[2-((S)-3-Dimethylamino-pyrrolidin-1-yl)-pyridin-3-yl]-5-ethyl-7-methoxy-4H-benz[d][1,3]oxazin-4-one] had a melting point of 43 to 49 °C.

In turn, `CCc1cc(OC)cc2nc(-c3cccnc3N3CC[C@H](N(C)C)C3)oc(=O)c12` (as salt: trifluoroacetate) [Compound 132, 2-[2-((S)-3-Dimethylamino-pyrrolidin-1-yl)-pyridin-3-yl]-5-ethyl-7-methoxy-4H-benz[d][1,3]oxazin-4-one] gave a melting point of 117 to 119 °C.

On to `CCc1cc(OC)cc2nc(-c3cccnc3N3CC[C@H](N(C)C)C3)oc(=O)c12` (as salt: salt) (hydrate or solvate) [Compound 132, 2-[2-((S)-3-Dimethylamino-pyrrolidin-1-yl)-pyridin-3-yl]-5-ethyl-7-methoxy-4H-benz[d][1,3]oxazin-4-one], for which the melting point was 150 to 159 °C.

Consider `CCc1cc(OC)cc2nc(-c3cccnc3N3CC[C@H](N(C)C)C3)oc(=O)c12` (as salt: tartrate) (hydrate or solvate) [Compound 132, 2-[2-((S)-3-Dimethylamino-pyrrolidin-1-yl)-pyridin-3-yl]-5-ethyl-7-methoxy-4H-benz[d][1,3]oxazin-4-one], for which the melting point was 148 to 155 °C and 144 to 145 °C.

As for `CCc1cc(OC)cc2nc(-c3cccnc3N3CCN(CCOC)CC3)oc(=O)c12` [Compound 134], the “% Inhibition in the ALI model” value in series [2] is reported as “B (B=11-30)”.
